Results from patent US4073900A, “11β-FLUOROPREGNENES” (Schering Aktiengesellschaft, priority 1975, dated 1978).

Legend:
[1] = system: seminal vesicles; assay: antiandrogen test, seminal vesicle weight in testosterone propionate-treated male castrated rats; format: in vivo; conditions: daily dosage s.c. over 7 days, 0.1 mg testosterone propionate daily s.c., halves organ weight caused by testosterone propionate
Description: The antiandrogenic activity was tested on male castrated rats weighing about 100 g. Starting with 1 week after castration, the test compound was administered in staggered doses subcutaneously over a period of 7 days. Over the same time period, the animals received daily 0.1 mg. of testosterone propionate subcutaneously. On the eighth day, the animals were sacrificed, and the weights of the seminal vesicles were determined. As the ED50, the daily dosage was determined which reduced the organ weight caused solely by testosterone propionate to one-half.

[2] = system: infantile female rabbits; assay: Clauberg test, progestational activity (McPhail values) after oral administration to infantile female rabbits; format: in vivo
Description: For the progestational effect, the McPhail values were determined in the usual Clauberg test after oral administration to infantile female rabbits. The minimum amount required to achieve a positive effect is expressed by the McPhail value of 1.5.

[3] = oral, dose 0.001 mg, infantile female rabbits
[4] = oral, dose 0.003 mg, infantile female rabbits
[5] = oral, dose 0.01 mg, infantile female rabbits

Compound	Antiandrogenic Activity ED50 Seminal Vesicle [1] [mg]	Progestational Activity, McPhail [2, 3]	Progestational Activity, McPhail [2, 4]	Progestational Activity, McPhail [2, 5]	threshold dose (McPhail 1.5) for the progestational activity ([2]; oral, infantile female rabbits, minimum amount for positive effect) [mg]	Clauberg test, comparison with compound B ([2]; compared with the conventional compound B)
CC(=O)O[C@]1(C(C)=O)CC[C@H]2[C@@H]3C=C(Cl)C4=CC(=O)[C@@H]5C[C@@H]5[C@]4(C)[C@H]3CC[C@@]21C [B, 17-acetoxy-6-chloro-1α,2α -methylene-4,6-pregnadiene-3,20-dione, reference compound]	0.1 to 0.3	1.0	1.5	2.9	0.003	–
CC(=O)O[C@]1(C(C)=O)CC[C@H]2[C@@H]3C=C(Cl)C4=CC(=O)[C@@H]5C[C@@H]5[C@]4(C)[C@H]3[C@@H](F)C[C@@]21C [A, 17-acetoxy-6-chloro-11β-fluoro-1α,2α -methylene-4,6-pregnadiene-3,20-dione]	0.3 to 1.0	1.1	2.0	3.4	–	superior
